The target in this assay is T1, human GPR119 (Homo sapiens, UniProt Q8TDV5).
T1 construct: expressed in transfected cells; host or cells: HEK 293s
T1 sequence (Q8TDV5 1-335): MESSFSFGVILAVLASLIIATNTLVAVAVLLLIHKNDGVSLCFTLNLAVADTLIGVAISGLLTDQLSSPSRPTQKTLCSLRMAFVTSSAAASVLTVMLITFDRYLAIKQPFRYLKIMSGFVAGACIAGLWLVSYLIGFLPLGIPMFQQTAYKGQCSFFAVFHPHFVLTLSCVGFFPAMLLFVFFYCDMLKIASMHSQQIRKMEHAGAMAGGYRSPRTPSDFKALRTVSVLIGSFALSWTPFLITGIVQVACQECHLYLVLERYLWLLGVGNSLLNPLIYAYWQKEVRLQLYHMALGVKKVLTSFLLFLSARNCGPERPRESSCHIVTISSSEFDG
The assay is described as follows: Cyclic AMP (HTRF cAMP) assay for human GPR119, Method A. The class given is cell-based. As to conditions: for activation at 30 µM: HEK293S, 0.75 h, percent effect at top concentration 30 μM relative to maximum (50 μM Oleoylethanolamide) and minimum (1% DMSO) controls; for activation at 30 µM / pEC50: Method A, HEK 293s cells over-expressing human GPR119; for pEC50: midpoint of dose response curve, selected examples.

Molecules are shown by their SMILES. pEC50: −log10 of the molar value.

A word on the pEC50: it is −log10 of the EC50, conventionally taken in molar units. For `CN(C)CCN(C)C(=O)c1ccc(COc2cnc(N3CCN(C(=O)OC(C)(C)C)CC3)nc2)cc1` [Example 49, tert-butyl 4-(5-(4-((2-(dimethylamino)ethyl)(methyl)carbamoyl)benzyloxy)pyrim-idin-2-yl)piperazine-1-carboxylate], the activation at 30 µM amounted to 27% and the negative logarithm of the EC50 (pEC50) is 5.69. As to `CC(C)(C)OC(=O)N1CCN(c2ncc(OCc3ccc(S(C)(=O)=O)c(F)c3)cn2)CC1` [Example 32, tert-butyl 4-(5-(3-fluoro-4-(methylsulfonyl)benzyloxy)pyrimidin-2-yl)piperazine-1-carboxylate], the activation at 30 µM stood at 62%. On the same count and under the same terms, with `N#Cc1cnccc1COc1cnc(N2CCN(C(=O)OC3COC3)CC2)nc1` [Example 77, oxetan-3-yl 4-(5-((3-cyanopyridin-4-yl)methoxy)pyrimidin-2-yl)piperazine-1-carboxylate] the figure was 92%. On the same count and under the same terms, the figure for `CC(C)(C)OC(=O)N1CCN(c2ncc(OCc3ccc(S(=O)(=O)CCN4CCOCC4)cc3)cn2)CC1` [Example 92, Tert-butyl 4-(5-(4-(2-morpholinoethylsulfonyl)benzyloxy)pyrimidin-2-yl)piperazine-1-carboxylate] is 68%. Molecule `CC(C)NC(=O)c1ccc(COc2cnc(N3CCN(C(=O)OC(C)(C)C)CC3)nc2)cc1` [Example 46, tert-butyl 4-(5-(4-(isopropylcarba-moyl)benzyl-oxy)pyrimidin-2-yl)piperazine-1-carboxylate] had an activation at 30 µM of 94% and a pEC50 of 7.49. On the same counts, the results for `CC1(OC(=O)N2CCN(c3ncc(OCc4ccncc4C#N)cn3)CC2)CC1` [Example 62, 1-methylcyclo-propyl 4-(5-((3-cyanopyridin-4-yl)methoxy)pyrimidin-2-yl)piperazine-1-carboxylate] are 208% and 6.94. `C[C@@H]1CN(C(=O)OC2CCC2)CCN1c1ncc(OCc2ccc(S(C)(=O)=O)cc2)cn1` [Example 64, (R)-cyclobutyl 3-methyl-4-(5-(4-(methylsulf-onyl)benzyl-oxy)pyrimi-din-2-yl)piperazine-1-carboxylate] displayed an activation at 30 µM of 57%.

As to `Cc1cc(COc2cnc(N3CCN(C(=O)OC(C)(C)C)CC3)nc2)ccn1` [tert-butyl 4-[5-[(2-methyl-4-pyridyl)methoxy]pyrimidin-2-yl]piperazine-1-carboxylate], the “significant activity at a top concentration of 30 μM” value (human GPR119 cAMP assay, top concentration 30 μM) was “did not show significant activity”. Consider `CC(C)OC(=O)N1CCN(c2ncc(OCc3ccc(S(C)(=O)=O)cc3)cn2)CC1` [Example 56, Isopropyl 4-(5-(4-(methylsulfonyl)benzyloxy)pyrimidin-2-yl)piperazine-1-carboxylate], for which the activation at 30 µM amounted to 63%. Same read-out and setting: the figure for `CC(=O)Nc1ccc(COc2cnc(N3CCN(C(=O)OC(C)(C)C)CC3)nc2)cn1` [Example 6, tert-butyl 4-(5-((6-acetamido-pyridin-3-yl)methoxy)pyrimidin-2-yl)piperazine-1-carboxylate] is 59%; for `CN1CCC(CNC(=O)c2ccc(COc3cnc(N4CCN(C(=O)OC(C)(C)C)CC4)nc3)cc2)CC1` [Example 52, tert-butyl 4-(5-(4-((1-methylpiper-idin-4-yl)methylcarba-moyl)benzyl-oxy)pyrimidin-2-yl)piperazine-1-carboxylate] it is 20%. As to `CC(C)c1nc(N2CCN(c3ncc(OCc4ccc(S(C)(=O)=O)cc4)cn3)[C@H](C)C2)no1` [Example 89], the activation at 30 µM was 73%. `CC(C)(C#N)OC(=O)N1CCN(c2ncc(OCc3ccncc3C#N)cn2)CC1` [Example 72, 2-cyanopropan-2-yl 4-(5-((3-cyanopyridin-4-yl)methoxy)pyrimidin-2-yl)piperazine-1-carboxylate] returned an activation at 30 µM of 173%.

Molecule `CC(C)(C)OC(=O)N1CCN(c2ncc(OCc3ccc(C(=O)N4CCNCC4)cc3)cn2)CC1` [Example 50, tert-butyl 4-(5-(4-(piperazine-1-carbonyl)benz-yloxy)pyrimi-din-2-yl)piperazine-1-carboxylate] displayed an activation at 30 µM of 23%.

Values taken from patent US20110065706A1, “Therapeutic Agents 812” (AstraZeneca AB, priority 2009, published 2011).
